Test results: patent US20250230193A1, “CYCLIC COMPOUND HAVING SELECTIVE KRAS INHIBITORY EFFECT ON HRAS AND NRAS” (CHUGAI SEIYAKU KABUSHIKI KAISHA, priority 2022, published 2025)

How the values were obtained:
[1] = target: GDP-bound NRAS wild-type protein (Homo sapiens, UniProt P01111); experiment: Binding to NRAS by surface plasmon resonance (SPR), Single Cycle Kinetics; settings: KD ratio, GDP-bound NRAS wild-type vs GDP-bound KRAS wild-type, SPR
[2] = target: GDP-bound HRAS wild-type protein (Homo sapiens, UniProt P01112); experiment: Binding to HRAS by surface plasmon resonance (SPR), Single Cycle Kinetics; settings: KD ratio, GDP-bound HRAS wild-type vs GDP-bound KRAS wild-type, SPR
Chain of GDP-bound HRAS wild-type protein (P01112 whole entry): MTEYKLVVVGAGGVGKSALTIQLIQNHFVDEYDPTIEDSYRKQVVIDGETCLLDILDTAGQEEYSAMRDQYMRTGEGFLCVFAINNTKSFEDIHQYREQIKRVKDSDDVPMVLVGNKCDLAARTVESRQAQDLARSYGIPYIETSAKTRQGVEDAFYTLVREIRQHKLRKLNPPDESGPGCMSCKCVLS

Chain of GDP-bound NRAS wild-type protein (P01111 whole entry): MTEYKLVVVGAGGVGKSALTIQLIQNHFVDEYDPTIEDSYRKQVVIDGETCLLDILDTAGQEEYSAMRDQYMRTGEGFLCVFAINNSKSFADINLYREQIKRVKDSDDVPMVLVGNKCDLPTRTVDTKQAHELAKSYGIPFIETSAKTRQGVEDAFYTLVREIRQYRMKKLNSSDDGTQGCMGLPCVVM

| Structure (SMILES) | NRAS/KRAS (ratio of KD value for NRAS to KD value for KRAS) [1] | HRAS/KRAS (ratio of KD value for HRAS to KD value for KRAS) [2] |
| --- | --- | --- |
| CCCOC[C@H]1C(=O)N[C@@H]([C@@H](C)CC)C(=O)N(C)CC(=O)N(C)[C@H]2C/C=C\CCN(C2=O)[C@@H](Cc2ccc(C(F)(F)F)cc2)C(=O)N(C)CC(=O)N[C@@H](CCc2cc(F)c(C(F)(F)F)c(F)c2)C(=O)N2C[C@H](OCC)C[C@H]2C(=O)NC2(CC(C)(C)C2)C(=O)N(C)[C@@H](C2CCCC2)C(=O)N(C)[C@H](C(=O)N(C)CCC)CC(=O)N1C [PP1673] | A (a compound having 10 or more and less than 20 is denoted as A) | A (a compound having 10 or more and less than 20 is denoted as A) |
| CCO[C@@H]1C[C@H]2C(=O)NC3(CC(C)(C)C3)C(=O)N(C)[C@@H](C3CCCC3)C(=O)N(C)[C@H](C(=O)N(C)C)CC(=O)N(C)[C@@H](C)C(=O)N[C@@H]([C@@H](C)CC)C(=O)N(C)CC(=O)N(C)[C@H]3C/C=C\CCN(C3=O)[C@@H](Cc3ccc(C(F)(F)F)cc3)C(=O)N(C)CC(=O)N[C@@H](CCc3ccc(C(F)(F)F)c(OC)c3)C(=O)N2C1 [PP1674] | A (a compound having 10 or more and less than 20 is denoted as A) | A (a compound having 10 or more and less than 20 is denoted as A) |
| CCO[C@@H]1C[C@H]2C(=O)NC3(CC(C)(C)C3)C(=O)N(C)[C@@H](C3CCCC3)C(=O)N(C)[C@H](C(=O)N(C)C)CC(=O)N(C)[C@@H](CC(F)(F)F)C(=O)N[C@@H]([C@@H](C)CC)C(=O)N(C)CC(=O)N(C)[C@H]3C/C=C\CCN(C3=O)[C@@H](Cc3ccc(C(F)(F)F)cc3)C(=O)N(C)CC(=O)N[C@@H](CCc3ccc(C(F)(F)F)c(OC)c3)C(=O)N2C1 [PP1675] | A (a compound having 10 or more and less than 20 is denoted as A) | B (a compound having 3 or more and less than 10 is denoted as B) |
| CCO[C@@H]1C[C@H]2C(=O)NC3(CC(C)(C)C3)C(=O)N(C)[C@@H](C3CCCC3)C(=O)N(C)[C@H](C(=O)N(C)CC)CC(=O)N(C)[C@@H](COC)C(=O)N[C@@H]([C@@H](C)CC)C(=O)N(C)CC(=O)N(C)[C@H]3C/C=C\CCN(C3=O)[C@@H](Cc3ccc(C(F)(F)F)cc3)C(=O)N(C)CC(=O)N[C@@H](CCc3ccc(C(F)(F)F)c(OC)c3)C(=O)N2C1 [PP1679] | A (a compound having 10 or more and less than 20 is denoted as A) | A (a compound having 10 or more and less than 20 is denoted as A) |
| CC[C@H](C)[C@@H]1NC(=O)[C@H](CC(F)(F)F)N(C)C(=O)C[C@@H](C(=O)N(C)C)N(C)C(=O)[C@H](C2CCCC2)N(C)C(=O)C2(CC(C)(C)C2)NC(=O)[C@@H]2C[C@H](C)CN2C(=O)[C@H](CCc2cc(F)c(C(F)(F)F)c(F)c2)NC(=O)CN(C)C(=O)[C@H](Cc2ccc(C(F)(F)F)cc2)N2CC/C=C\C[C@@H](C2=O)N(C)C(=O)CN(C)C1=O [PP1682] | AA (a compound having 20 or more is denoted as AA) | A (a compound having 10 or more and less than 20 is denoted as A) |
| CCC[C@H]1C(=O)N[C@@H]([C@@H](C)CC)C(=O)N(C)CC(=O)N(C)[C@H]2C/C=C\CCN(C2=O)[C@@H](Cc2ccc(C(F)(F)F)cc2)C(=O)N(C)CC(=O)N[C@@H](CCc2cc(F)c(C(F)(F)F)c(F)c2)C(=O)N2C[C@@H](C)C[C@H]2C(=O)NC2(CC(C)(C)C2)C(=O)N(C)[C@@H](C2CCCC2)C(=O)N(C)[C@H](C(=O)N(C)C)CC(=O)N1C [PP1683] | A (a compound having 10 or more and less than 20 is denoted as A) | A (a compound having 10 or more and less than 20 is denoted as A) |
| CC[C@H](C)[C@@H]1NC(=O)[C@H](CC2CCC2)N(C)C(=O)C[C@@H](C(=O)N(C)C)N(C)C(=O)[C@H](C2CCCC2)N(C)C(=O)C2(CC(C)(C)C2)NC(=O)[C@@H]2C[C@H](C)CN2C(=O)[C@H](CCc2cc(F)c(C(F)(F)F)c(F)c2)NC(=O)CN(C)C(=O)[C@H](Cc2ccc(C(F)(F)F)cc2)N2CC/C=C\C[C@@H](C2=O)N(C)C(=O)CN(C)C1=O [PP1684] | A (a compound having 10 or more and less than 20 is denoted as A) | A (a compound having 10 or more and less than 20 is denoted as A) |
| CCCN(C)C(=O)[C@@H]1CC(=O)N(C)[C@@H](CC(F)F)C(=O)N[C@@H]([C@@H](C)CC)C(=O)N(C)CC(=O)N(C)[C@H]2C/C=C\CCN(C2=O)[C@@H](Cc2ccc(C(F)(F)F)cc2)C(=O)N(C)CC(=O)N[C@@H](CCc2cc(F)c(C(F)(F)F)c(F)c2)C(=O)N2C[C@H](F)C[C@H]2C(=O)NC2(CC(C)(C)C2)C(=O)N(C)[C@@H](C2CCCC2)C(=O)N1C [PP1687] | A (a compound having 10 or more and less than 20 is denoted as A) | A (a compound having 10 or more and less than 20 is denoted as A) |
| CC[C@H](C)[C@@H]1NC(=O)[C@H](CC(F)(F)F)N(C)C(=O)C[C@@H](C(=O)N(C)C)N(C)C(=O)[C@H](C2CCCC2)N(C)C(=O)C2(CC(C)(C)C2)NC(=O)[C@@H]2C[C@@H](F)CN2C(=O)[C@H](CCc2cc(F)c(C(F)(F)F)c(F)c2)NC(=O)CN(C)C(=O)[C@H](Cc2ccc(C(F)(F)F)cc2)N2CC/C=C\C[C@@H](C2=O)N(C)C(=O)CN(C)C1=O [PP1688] | A (a compound having 10 or more and less than 20 is denoted as A) | A (a compound having 10 or more and less than 20 is denoted as A) |
| CCC[C@H]1C(=O)N[C@@H]([C@@H](C)CC)C(=O)N(C)CC(=O)N(C)[C@H]2C/C=C\CCN(C2=O)[C@@H](Cc2ccc(C(F)(F)F)cc2)C(=O)N(C)CC(=O)N[C@@H](CCc2cc(F)c(C(F)(F)F)c(F)c2)C(=O)N2C[C@H](F)C[C@H]2C(=O)NC2(CC(C)(C)C2)C(=O)N(C)[C@@H](C2CCCC2)C(=O)N(C)[C@H](C(=O)N(C)C)CC(=O)N1C [PP1689] | A (a compound having 10 or more and less than 20 is denoted as A) | B (a compound having 3 or more and less than 10 is denoted as B) |
| C#CC[C@H]1C(=O)N[C@@H]([C@@H](C)CC)C(=O)N(C)CC(=O)N(C)[C@H]2C/C=C\CCN(C2=O)[C@@H](Cc2ccc(C(F)(F)F)cc2)C(=O)N(C)CC(=O)N[C@@H](CCc2cc(F)c(C(F)(F)F)c(F)c2)C(=O)N2C[C@H](F)C[C@H]2C(=O)NC2(CC(C)(C)C2)C(=O)N(C)[C@@H](C2CCCC2)C(=O)N(C)[C@H](C(=O)N(C)CC)CC(=O)N1C [PP1691] | A (a compound having 10 or more and less than 20 is denoted as A) | A (a compound having 10 or more and less than 20 is denoted as A) |
| C#CC[C@H]1C(=O)N[C@@H]([C@@H](C)CC)C(=O)N(C)CC(=O)N(C)[C@H]2C/C=C\CCN(C2=O)[C@@H](Cc2ccc(C(F)(F)F)cc2)C(=O)N(C)CC(=O)N[C@@H](CCc2cc(F)c(C(F)(F)F)c(F)c2)C(=O)N2C[C@H](F)C[C@H]2C(=O)NC2(CC(C)(C)C2)C(=O)N(C)[C@@H](C2CCCC2)C(=O)N(C)[C@H](C(=O)N(C)CCC)CC(=O)N1C [PP1692] | AA (a compound having 20 or more is denoted as AA) | A (a compound having 10 or more and less than 20 is denoted as A) |
| CCCC[C@H]1C(=O)N[C@@H]([C@@H](C)CC)C(=O)N(C)CC(=O)N(C)[C@H]2C/C=C\CCN(C2=O)[C@@H](Cc2ccc(C(F)(F)F)cc2)C(=O)N(C)CC(=O)N[C@@H](CCc2cc(F)c(C(F)(F)F)c(F)c2)C(=O)N2C[C@H](F)C[C@H]2C(=O)NC2(CC(C)(C)C2)C(=O)N(C)[C@@H](C2CCCC2)C(=O)N(C)[C@H](C(=O)N(C)C)CC(=O)N1C [PP1693] | AA (a compound having 20 or more is denoted as AA) | A (a compound having 10 or more and less than 20 is denoted as A) |
| CC[C@H](C)[C@@H]1NC(=O)[C@H](CC(C)C)N(C)C(=O)C[C@@H](C(=O)N(C)CC)N(C)C(=O)[C@H](C2CCCC2)N(C)C(=O)C2(CC(C)(C)C2)NC(=O)[C@@H]2C[C@@H](F)CN2C(=O)[C@H](CCc2cc(F)c(C(F)(F)F)c(F)c2)NC(=O)CN(C)C(=O)[C@H](Cc2ccc(C(F)(F)F)cc2)N2CC/C=C\C[C@@H](C2=O)N(C)C(=O)CN(C)C1=O [PP1694] | A (a compound having 10 or more and less than 20 is denoted as A) | A (a compound having 10 or more and less than 20 is denoted as A) |
| CCCN(C)C(=O)[C@@H]1CC(=O)N(C)[C@@H](COC)C(=O)N[C@@H]([C@@H](C)CC)C(=O)N(C)CC(=O)N(C)[C@H]2C/C=C\CCN(C2=O)[C@@H](Cc2ccc(C(F)(F)F)cc2)C(=O)N(C)CC(=O)N[C@@H](CCc2cc(F)c(C(F)(F)F)c(F)c2)C(=O)N2C[C@H](F)C[C@H]2C(=O)NC2(CC(C)(C)C2)C(=O)N(C)[C@@H](C2CCCC2)C(=O)N1C [PP1696] | AA (a compound having 20 or more is denoted as AA) | A (a compound having 10 or more and less than 20 is denoted as A) |
| CCCOC[C@H]1C(=O)N[C@@H]([C@@H](C)CC)C(=O)N(C)CC(=O)N(C)[C@H]2C/C=C\CCN(C2=O)[C@@H](Cc2ccc(C(F)(F)F)cc2)C(=O)N(C)CC(=O)N[C@@H](CCc2cc(F)c(C(F)(F)F)c(F)c2)C(=O)N2C[C@H](F)C[C@H]2C(=O)NC2(CC(C)(C)C2)C(=O)N(C)[C@@H](C2CCCC2)C(=O)N(C)[C@H](C(=O)N(C)CC)CC(=O)N1C [PP1697] | A (a compound having 10 or more and less than 20 is denoted as A) | A (a compound having 10 or more and less than 20 is denoted as A) |
